# Bridge positions count the residues as written; N and C are the ends. Square brackets hold non-standard residues; d marks the D form. Peptide text beside a SMILES is read from it. Trp(1-Me) = Cn1cc(C[C@H](N)C(=O)O)c2ccccc21; NMeI = CC[C@H](C)[C@H](NC)C(=O)O; Sar = CNCC(=O)O
# Assays:
# rat C3 = assay: ELISA, direct binding of plasma C3 to coated peptide; settings: peptide coated on ELISA plate, rat plasma dilutions, anti-C3 antibody, OD 450 nm
# Protocol: CP40-KK and its control peptide were dissolved in coating buffer at different concentration and then added to wells of ELISA plate as designed. The coated plate was incubated at 4 °C overnight. Then the plate was incubated with plasma with the indicated dilution at 37 °C for 2 h. Next, the plate was incubated with the C3 antibody (1:2000, MP biomedicals, Irvine, CA, USA) at 37 °C for 2 h. Then the plate was washed for 3 times and incubated with corresponding HRP conjugated secondary antibodies (1:2000, Abcam, Cambridge, UK) at 37° for 1 h. Finally, TMB substrate was added to each well for indicated time at 37 °C and then the stop solution was added to stop the TMB reaction. OD values were measured at 450 nm using a microplate reader (Bio-tek, Vermont, USA). The coating buffer, wash buffer, TMB substrate, and stop solution were all bought from Boster Biological Technology (Wuhan, China).
# CP40-KK and its control peptide were dissolved in coating buffer at different concentrations and then added to wells of ELISA plate as designed. The coated plate was incubated at 4°C overnight. After removing the coating buffer from the wells, the plate was washed using wash buffer 3 times. Then the plate was incubated with plasma with the indicated dilution at 37°C for 2h. […] OD values were measured at 450nm using a microplate reader (Bio-tek, Vermont, USA). […]
# Tail bleeding time = assay type: in vivo, rat; settings: rats, after 2 weeks of treatment
smiles,measurement,setting,value
CC[C@H](C)[C@H](NC(=O)[C@H](N)Cc1ccc(O)cc1)C(=O)N[C@H]1CSSC[C@@H](C(=O)N(C)[C@H](C(=O)N[C@@H](CCCCN)C(=O)N[C@@H](CCCCN)C(N)=O)[C@@H](C)CC)NC(=O)[C@H](CCCNC(=N)N)NC(=O)[C@H](Cc2c[nH]cn2)NC(=O)CN(C)C(=O)[C@H](Cc2c[nH]c3ccccc23)NC(=O)[C@H](CC(=O)O)NC(=O)[C@H](CCC(N)=O)NC(=O)[C@H](Cc2cn(C)c3ccccc23)NC(=O)[C@H](C(C)C)NC1=O [CP40-KK] (H-[dY]ICV[Trp(1-Me)]QDW[Sar]HRC[NMeI]KK-NH2; disulfide 3-12 (inferred)),direct binding of rat C3 and CP40-KK (OD450),rat C3,specific binding
same,tail bleeding time,Tail bleeding time,significantly prolong

# Source: publication PMC10870435, “A novel complement C3 inhibitor CP40-KK protects against experimental pulmonary arterial hypertension via an inflammasome NLRP3 associated pathway” (Journal of Translational Medicine, 2024)
